# Tests used:
# SB.msgc-1 = experiment: AC50 for growth inhibition (viability) (log10 M); higher = less potent; conditions: SB.msgc-1 (sporadic gastric cancer)
# Procedure, shortened: (§1)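 Values are log half-maximal activity concentrations from four-parameter fits of DMSO-normalised viability, restricted to high-quality curve classes. Patient-derived gastric cancer cells, hereditary or sporadic, were plated at 500 cells per 1536 well in 5 μL medium and given 23 nL compound in DMSO by pintool across 11 threefold dilutions, the top final concentration being 46 μM. Viability was read by ViewLux luminescence after 48 h and a 30 min CellTiter-Glo step at room temperature.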
# SB.mhdgc-1 = experiment: as above; conditions: SB.mhdgc-1 (hereditary c.1380delA CDH1 gastric cancer)
# Procedure, shortened: as §1
Structure (SMILES),AC50 for growth inhibition (log10 M) (SB.msgc-1),AC50 for growth inhibition (log10 M) (SB.mhdgc-1)
CC(C)C[C@H](NC(=O)[C@H](CCc1ccccc1)NC(=O)CN1CCOCC1)C(=O)N[C@@H](Cc1ccccc1)C(=O)N[C@@H](CC(C)C)C(=O)[C@@]1(C)CO1 [Carfilzomib],-7.68,-7.93
CC(=O)O[C@H]1C[C@@H]2CC[C@@H]3[C@H](CC[C@@]4(C)[C@H]3C[C@H]([N+]3(C)CCCCC3)[C@@H]4OC(C)=O)[C@@]2(C)C[C@@H]1N1CCCCC1 [Vecuronium bromide],-5.58,-5.93
CC(C)(C)c1nc(-c2cccc(N[S+](=O)([O-])c3c(F)cccc3F)c2F)c(-c2ccnc(N)n2)s1 [Dabrafenib],-4.88,-4.73
Cc1cccc(/C=N/Nc2cc(N3CCOCC3)nc(OCCc3ccccn3)n2)c1 [Apilimod],-4.78,-4.88
C[C@@H](NC1=CC=CC=C1C(O)=O)C/2=C/C(=C\N3C(=O)/C=C(\N=C23)N4CCOCC4)C [AZD-6482],-4.87,-4.82
CC[C@@H]1[C@@H](C)O[C@@](O)([C@@H](C)[C@H](O)[C@H](C)[C@H]2OC(=O)/C=C/C=C/[C@H](C)[C@@H]([C@@H](C)[C@@H](O)[C@H](C)[C@@]3(O)C[C@@H](O[C@H]4C[C@H](O)[C@H](O)[C@H](C)O4)[C@H](CC)[C@@H](C)O3)OC(=O)/C=C/C=C/[C@@H]2C)C[C@H]1O[C@H]1C[C@H](O)[C@H](O)[C@H](C)O1 [Azalomycin-B],-6.33,-6.38
CC/1=C(\O)C(=O)\C=C2/C1=C/C=C3\[C@@]2(C)CC[C@@]4(C)[C@@H]5C[C@@](C)(CC[C@]5(C)CC[C@]34C)C(O)=O [Tripterin],-5.78,-5.58
COc1ccc(C(=O)CC(=O)c2ccc(C(C)(C)C)cc2)cc1 [Avobenzone],-5.58,-6.18
Cc1nc(N)ncc1-c1nc(N2CCOCC2)c2sc(C(C)(C)O)cc2n1 [GNE-490],-7.43,-6.38
C[C@@H]1C[C@H]2[C@@H]3CC\C4=C\C(=O)\C=C/[C@]4(C)[C@@]3(Cl)[C@@H](O)C[C@]2(C)[C@@]1(OC(=O)C5=CC=CO5)C(=O)CCl [Mometasone furoate],-5.03,-4.83
N#C/C(=C(/N)Sc1ccc(N)cc1)c1ccccc1C(F)(F)F [SL-327],-5.13,-5.28
OC1=CC=C(C=C1)\C2=C\C(=O)C3=C(O2)C=C(O)C=C3O [Apigenin],-4.83,-5.08
C[C@H]1CN(C[C@@H](C)O1)CC(=O)NC2=CC=C3SC4=C(CC3=C2)C=CC=C4\C5=C\C(=O)\C=C(/O5)N6CCOCC6,-5.28,-5.23
Cc1cc(Nc2ncc3c(n2)N(C)C(=O)N(c2cc(NC(=O)c4cccc(C(F)(F)F)c4)ccc2C)C3)n(C)n1 [Pluripotin],-6.08,-5.23
